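Dose response: 5 concentrations. Exposure: 48 h. Format: 96-well plates. Endpoint: linear interpolation; highest concentration if not reached. At the TGI there is no net growth.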
Experiments:
Assay in all cases: growth of human tumour cells (NCI), 48 h
U251 CNS = system: U251 CNS
BT-549 breast = system: BT-549 breast
EKVX NSCLC = system: EKVX NSCLC
UACC-257 melanoma = system: UACC-257 melanoma
NCI-H23 lung = system: NCI-H23 lung
SK-MEL-28 melanoma = system: SK-MEL-28 melanoma
SF-539 CNS = system: SF-539 CNS
HCT-116 colon = system: HCT-116 colon
SW-620 colon = system: SW-620 colon
MDA-MB-231 breast = system: MDA-MB-231 breast
OVCAR-8 ovarian = system: OVCAR-8 ovarian

Compound	TGI (U251 CNS) [µM]	TGI (BT-549 breast) [µM]	TGI (EKVX NSCLC) [µM]	TGI (UACC-257 melanoma) [µM]	TGI (NCI-H23 lung) [µM]	TGI (SK-MEL-28 melanoma) [µM]	TGI (SF-539 CNS) [µM]	TGI (HCT-116 colon) [µM]	TGI (SW-620 colon) [µM]	TGI (MDA-MB-231 breast) [µM]	TGI (OVCAR-8 ovarian) [µM]
Cc1ccnc(NS(=O)(=O)c2ccc(NC(=O)c3ccc4nc5ccccc5c(Nc5ccc(S(=O)(=O)Nc6nccc(C)n6)cc5)c4c3)cc2)n1	41.7	32.6	> 100	> 100	> 100	> 100	> 100	> 100	> 100	> 100	> 100
CC(=O)OCC1C(C(C)OC(C)=O)CCC2C1CCC1(C)C(OC(C)=O)CCC21 (stereo not drawn)	30.5	24.5	32.9	31.9	76.1	29.1	32.6	29.2	38.2	30.7	46.2
C=CCCCCOC1C=CC(OC(C)=O)C(COC(C)=O)O1 (stereo not drawn)	> 100	> 100	> 100	> 100	> 100	> 100	> 100	> 100	> 100	> 100	> 100
O=[N+]([O-])c1cc2n[nH]nc2c2nonc12	> 100	24.1	> 100	63	83.3	> 100	56	43.7	> 100	> 100	58.1
O=C(CC(=O)c1ccncc1)c1ccccc1	> 100	> 100	> 100	> 100	> 100	> 100	> 100	> 100	> 100	> 100	> 100
COC(=O)N1CC[C@@H]2CCC=C(c3cccc4c3OCO4)[C@@H]21	> 100	> 100	> 100	> 100	> 100	> 100	> 100	> 100	> 100	> 100	> 100
CCCCCCc1nn2c(-c3ccc(C)cc3)nnc2s1	> 100	> 100	> 100	> 100	> 100	> 100	> 100	> 100	> 100	> 100	> 100
Cc1cccc2c1Oc1cc(Cl)ccc1C2NC(=O)CCN1CCCCC1 (stereo not drawn)	29.5	33.4	55.5	30.5	37.5	29.2	31.9	32.1	34.9	39	30.2
CCOC(=O)C(SCCO)C(C(=O)OCC)n1ccc(N)nc1=O (stereo not drawn)	> 100	> 100	> 100	> 100	> 100	> 100	> 100	> 100	> 100	> 100	> 100
NS(=O)(=O)c1nnc(NC(=O)CCC(=O)O)s1	> 100	> 100	> 100	> 100	> 100	> 100	> 100	> 100	> 100	> 100	> 100
CCCCCCCCCc1cc(O)c(O)cc1CCCCCCCCC	> 10	> 10	> 10	> 10	> 10	> 10	> 10	> 10	> 10	> 10	> 10
COc1cc2c(cc1C)NC(=O)/C2=C/c1c(Cl)[nH]c2cc(C)c(OC)cc12	15.3	9.92	22.8	23.7	11.6	24	1.33	18.1	19.7	33.2	24.1
COCCc1c(C)c(C#N)c2n(C)c3ccccc3n2c1=O	> 10	> 10	> 10	> 10	> 10	> 10	> 10	> 10	> 10	> 10	> 10
NS(=O)(=O)c1ccc(NNC(=O)c2cccc3c(=O)c4ccccc4[nH]c23)cc1	> 100	> 100	> 100	> 100	> 100	> 100	> 100	> 100	> 100	> 100	> 100
CCOC(=O)c1ccc(N=C2SC(=S)N(c3ccc(F)cc3)C2=Nc2ccc(C(=O)OCC)cc2)cc1	44.2	40.6	63.9	37.4	44.2	42.3	42.7	41.6	30	25.2	22.3
CCN(CC)CCN1c2ccccc2Sc2ccc3ccccc3c21	22.5	29.9	20.1	21.5	31.9	20.2	29.7	22.9	24.4	18.3	26.8
c1ccc(Cc2cccc3cc(-c4ccc(-c5ccccc5)cc4)[nH]c23)cc1	> 100	> 100	> 100	> 100	> 100	> 100	> 100	> 100	> 100	> 100	> 100
O=C(N/N=C(/COc1cccc(Cl)c1)N=Cc1ccncc1)c1ccncc1	> 100	> 100	> 100	> 100	> 100	> 100	> 100	> 100	> 100	> 100	> 100
Clc1cc2nc(C3CCCO3)[nH]c2cc1Cl (stereo not drawn)	> 100	91.3	> 100	> 100	> 100	> 100	> 100	> 100	> 100	> 100	> 100
CC1=C(C)C(=O)OC(C(C)(O)C2(O)CCC3(O)C4CC(Cl)C5(O)C(O)C=CC(=O)C5(C)C4CCC32C)C1 (stereo not drawn)	> 100	> 100	> 100	> 100	> 100	> 100	> 100	> 100	59.1	> 100	> 100
CCN(CC)CC(O)c1ccc2ccc3ccccc3c2c1 (stereo not drawn)	26	30.5	29.5	31.5	37	34.6	25.8	29.5	34.9	28.4	32
O=C1C(NS(=O)(=O)c2ccccc2)=C(n2cnc3ccccc32)C(=O)c2ccccc21	> 100	> 100	> 100	> 100	> 100	> 100	> 100	> 100	> 100	> 100	> 100
CN1CN(c2ccccc2)C2(CCNCC2)C1=O	> 100	> 100	> 100	> 100	> 100	> 100	> 100	> 100	> 100	> 100	> 100
CC(C)(C)OC(=O)N1C(C2=COc3ccccc3O2)=COc2ccccc21	> 100	71.4	52.3	78	95.1	87.5	41.2	72.7	67.8	69.6	> 100
COC(=O)C12CCC(C(=O)OC)(Cc3c(c4ccccc4n3S(=O)(=O)c3ccccc3)C1)C2=O (stereo not drawn)	> 100	> 100	> 100	> 100	> 100	> 100	> 67.3	> 26.5	> 100	> 100	> 100
O=c1oc2ncccc2n1Cc1ccc([N+](=O)[O-])cc1	> 100	> 100	> 100	> 100	> 100	> 100	> 100	> 100	> 100	> 100	> 100
CCCCC1Cc2cc(O)ccc2-c2n1c1cc(O)ccc1[n+]2C (stereo not drawn) (tested in a mixture with another compound)	> 62.3	> 100	> 100	80	> 76.2	74.3	> 100	> 100	> 100	> 100	> 100
Oc1c(C(O)(c2ccccc2)c2ccc3ccccc3c2O)ccc2ccccc12	21.8	42.3	50.7	23.4	23.1	33.3	36.1	21.8	41.8	33.6	29.7
